In ChEMBL document CHEMBL4665654, “Design, synthesis and evaluation of antiproliferative activity of fluorinated betulinic acid” (Bioorg Med Chem, 2019):
Calls of active or inactive are those of the source. The rule behind the calls is not given here.

Key:
[1] = Antiproliferative activity against human KB-VIN cells assessed as cell growth inhibition after 72 hrs by sulforhodamine B assay; type: functional, cell-based; settings: KBVIN
A549 = experiment: Antiproliferative activity against human A549 cells assessed as cell growth inhibition after 72 hrs by sulforhodamine B assay; type: functional, cell-based; settings: A549, 72 h
MDA-MB-231 = experiment: Antiproliferative activity against human MDA-MB-231 cells assessed as cell growth inhibition after 72 hrs by sulforhodamine B assay; type: functional, cell-based; settings: MDA-MB-231, 72 h
MCF7 [2] = experiment: Antiproliferative activity against human MCF7 cells assessed as cell growth inhibition after 72 hrs by sulforhodamine B assay; type: functional, cell-based; settings: MCF7, 72 h
KB = experiment: Antiproliferative activity against human KB cells assessed as cell growth inhibition after 72 hrs by sulforhodamine B assay; type: functional, cell-based
[3] = molecular target: T1, DNA topoisomerase 1 (Homo sapiens) (UniProt P11387); experiment: Inhibition of recombinant human topoisomerase 1 assessed as decrease in relaxation/nicking of supercoiled DNA using supercoiled DNA as substrate at 10 uM after 1 hr by ethidium bromide staining based agarose gel electrophoresis analysis
T1 sequence (whole entry): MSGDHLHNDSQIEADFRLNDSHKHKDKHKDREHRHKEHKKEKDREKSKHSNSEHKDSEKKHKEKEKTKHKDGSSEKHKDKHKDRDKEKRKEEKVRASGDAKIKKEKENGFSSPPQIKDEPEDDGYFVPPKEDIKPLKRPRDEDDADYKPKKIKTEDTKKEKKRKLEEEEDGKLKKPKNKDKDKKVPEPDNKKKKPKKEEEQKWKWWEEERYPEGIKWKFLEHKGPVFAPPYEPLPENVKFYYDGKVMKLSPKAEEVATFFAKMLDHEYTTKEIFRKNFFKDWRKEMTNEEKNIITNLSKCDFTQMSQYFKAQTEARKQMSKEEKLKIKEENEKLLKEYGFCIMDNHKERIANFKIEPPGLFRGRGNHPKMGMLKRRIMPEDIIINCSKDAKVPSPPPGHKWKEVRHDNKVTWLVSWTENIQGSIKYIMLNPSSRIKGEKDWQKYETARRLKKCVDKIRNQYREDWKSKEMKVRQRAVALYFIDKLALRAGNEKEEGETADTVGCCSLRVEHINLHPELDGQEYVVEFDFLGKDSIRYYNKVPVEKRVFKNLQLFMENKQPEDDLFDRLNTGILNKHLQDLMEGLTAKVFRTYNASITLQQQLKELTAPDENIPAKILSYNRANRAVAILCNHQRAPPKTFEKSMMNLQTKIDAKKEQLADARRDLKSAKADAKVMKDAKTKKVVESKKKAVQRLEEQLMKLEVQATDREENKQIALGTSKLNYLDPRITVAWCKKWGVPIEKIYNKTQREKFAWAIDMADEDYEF

MCF7 [4] = experiment: Induction of apoptosis in human MCF7 cells at 40 uM incubated for 24 to 72 hrs by Annexin V-FITC/propidium iodide staining-based flow cytometric analysis; type: functional, cell-based; settings: time hrs 24-72
[5] = molecular target: DNA topoisomerase 2-alpha (Homo sapiens) (UniProt P11388); experiment: Inhibition of topoisomerase-2alpha in human MCF7 cells nuclear extract assessed as decrease in relaxation/nicking of kinetoplast DNA using kDNA as substrate at 40 uM after 15 mins by ethidium bromide staining based agarose gel electrophoresis analysis; type: subcellular; settings: Nucleus
DNA topoisomerase 2-alpha (Homo sapiens), sequence (P11388 whole entry): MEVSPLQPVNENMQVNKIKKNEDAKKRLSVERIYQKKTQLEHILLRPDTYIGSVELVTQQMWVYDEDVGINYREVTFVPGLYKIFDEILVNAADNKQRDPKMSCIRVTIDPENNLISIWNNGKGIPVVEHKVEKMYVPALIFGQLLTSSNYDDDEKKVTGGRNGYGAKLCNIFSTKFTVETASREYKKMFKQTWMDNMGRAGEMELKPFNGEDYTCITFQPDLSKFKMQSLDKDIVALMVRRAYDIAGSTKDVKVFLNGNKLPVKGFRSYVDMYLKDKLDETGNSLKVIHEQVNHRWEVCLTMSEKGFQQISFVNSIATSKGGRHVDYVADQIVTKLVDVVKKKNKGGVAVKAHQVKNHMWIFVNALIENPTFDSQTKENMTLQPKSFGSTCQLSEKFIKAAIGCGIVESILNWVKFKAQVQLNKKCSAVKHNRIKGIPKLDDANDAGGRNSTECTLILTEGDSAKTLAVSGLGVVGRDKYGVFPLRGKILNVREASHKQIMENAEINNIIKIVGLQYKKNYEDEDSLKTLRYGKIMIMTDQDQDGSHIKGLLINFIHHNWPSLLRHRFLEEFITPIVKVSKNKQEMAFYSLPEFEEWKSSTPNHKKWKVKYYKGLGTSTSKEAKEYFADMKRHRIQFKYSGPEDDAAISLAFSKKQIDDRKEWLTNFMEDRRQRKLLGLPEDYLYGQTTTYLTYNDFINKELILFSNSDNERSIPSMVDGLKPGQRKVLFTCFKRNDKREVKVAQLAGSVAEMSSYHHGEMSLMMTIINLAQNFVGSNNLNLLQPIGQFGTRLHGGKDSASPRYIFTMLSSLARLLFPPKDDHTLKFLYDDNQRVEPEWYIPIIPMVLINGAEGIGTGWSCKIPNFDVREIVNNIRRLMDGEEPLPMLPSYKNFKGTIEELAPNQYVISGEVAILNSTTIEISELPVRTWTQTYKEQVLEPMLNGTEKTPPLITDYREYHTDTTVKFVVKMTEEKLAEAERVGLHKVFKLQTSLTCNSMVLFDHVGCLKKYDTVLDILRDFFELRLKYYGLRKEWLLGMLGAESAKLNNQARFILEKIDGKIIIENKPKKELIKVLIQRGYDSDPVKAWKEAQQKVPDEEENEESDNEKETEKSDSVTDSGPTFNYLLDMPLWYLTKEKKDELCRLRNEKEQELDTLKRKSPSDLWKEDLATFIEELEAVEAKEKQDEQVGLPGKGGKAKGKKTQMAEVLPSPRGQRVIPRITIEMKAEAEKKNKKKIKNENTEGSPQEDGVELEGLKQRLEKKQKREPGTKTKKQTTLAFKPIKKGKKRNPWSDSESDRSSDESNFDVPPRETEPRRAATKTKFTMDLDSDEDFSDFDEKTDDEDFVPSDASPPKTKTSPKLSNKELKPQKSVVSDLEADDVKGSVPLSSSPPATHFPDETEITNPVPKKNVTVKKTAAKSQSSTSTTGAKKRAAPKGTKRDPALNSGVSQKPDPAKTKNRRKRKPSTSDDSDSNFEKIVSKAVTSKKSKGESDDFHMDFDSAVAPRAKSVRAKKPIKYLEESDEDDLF

[6] = molecular target: T1, DNA topoisomerase 1 (Homo sapiens); experiment: Inhibition of topoisomerase 1 in human MCF7 cells nuclear extract assessed as decrease in relaxation/nicking of supercoiled DNA using supercoiled DNA as substrate at 40 uM after 1 hr by ethidium bromide staining based agarose gel electrophoresis analysis; type: subcellular; settings: Nucleus
[7] = molecular target: DNA topoisomerase 2-alpha (Homo sapiens) (UniProt P11388); experiment: Inhibition of recombinant human topoisomerase-2alpha assessed as decrease in relaxation/nicking of kinetoplast DNA using kDNA as substrate at 100 uM after 15 mins by ethidium bromide staining based agarose gel electrophoresis analysis
[8] = molecular target: T1, DNA topoisomerase 1 (Homo sapiens); experiment: Inhibition of recombinant human topoisomerase 1 assessed as decrease in relaxation/nicking of supercoiled DNA using supercoiled DNA as substrate at 30 uM after 1 hr by ethidium bromide staining based agarose gel electrophoresis analysis
MCF7 [9] = experiment: Inhibition of colony formation in human MCF7 cells at 10 to 40 uM of compound exposure followed by compound washout and subsequent incubation for 3 weeks by crystal violet staining based assay; type: functional, cell-based; settings: dose microM 10-40
MCF7 [10] = experiment: Modulation of DNA replication associated gene expression in human MCF7 cells at 40 uM after 24 hrs by cDNA microarray analysis; type: functional, cell-based
MCF7 [11] = experiment: Induction of apoptosis in human MCF7 cells assessed as increase in cleaved caspase-7 protein expression at 20 to 40 uM incubated for 72 hrs by Western blot analysis; type: functional, cell-based; settings: dose microM 20-40, time 72.0 hrs
[12] = Cytotoxicity against human MCF-10A cells assessed as cell viability at 30 uM after 72 hrs by MTT assay; type: cell-based; settings: read-out: Activity
MCF7 [13] = experiment: Induction of apoptosis in human MCF7 cells incubated for 24 to 72 hrs by Annexin V-FITC/propidium iodide staining-based flow cytometric analysis; type: functional, cell-based; settings: dose microM 20-40, time hrs 24-72
MCF7 [14] = experiment: Induction of apoptosis in human MCF7 cells at 20 to 40 uM by Annexin V-FITC/propidium iodide staining-based flow cytometric analysis; type: functional, cell-based; settings: dose microM 20-40, time hrs 24-72, TDE = time-dependent effect
[15] = molecular target: T1, DNA topoisomerase 1 (Homo sapiens); experiment: Inhibition of recombinant human topoisomerase 1 assessed as decrease in relaxation/nicking of supercoiled DNA using supercoiled DNA as substrate at 3 uM after 1 hr by ethidium bromide staining based agarose gel electrophoresis analysis
[16] = molecular target: T1, DNA topoisomerase 1 (Homo sapiens); experiment: Inhibition of recombinant human topoisomerase 1 assessed as decrease in relaxation/nicking of supercoiled DNA using supercoiled DNA as substrate after 1 hr by ethidium bromide staining based agarose gel electrophoresis analysis; settings: dose microM 1-30, time 1.0 hrs
MCF7 [17] = experiment: Induction of apoptosis in human MCF7 cells assessed as increase in cleaved caspase-9 protein expression at 20 to 40 uM incubated for 72 hrs by Western blot analysis; type: functional, cell-based; settings: dose microM 20-40, time 72.0 hrs
[18] = molecular target: DNA topoisomerase 2-alpha (Homo sapiens) (UniProt P11388); experiment: Inhibition of recombinant human topoisomerase-2alpha assessed as decrease in relaxation/nicking of kinetoplast DNA using kDNA as substrate at 30 uM after 15 mins by ethidium bromide staining based agarose gel electrophoresis analysis
MCF7 [19] = experiment: Induction of apoptosis in human MCF7 cells assessed as increase in cleaved PARP protein expression at 20 to 40 uM incubated for 72 hrs by Western blot analysis; type: functional, cell-based; settings: dose microM 20-40, time 72.0 hrs
MCF-10A = experiment: Cytotoxicity against human MCF-10A cells assessed as cell viability at 10 uM after 72 hrs by MTT assay; type: cell-based
MCF7 [20] = experiment: Antiproliferative activity against human MCF7 cells assessed as cell killing at 30 uM after 72 hrs by MTT assay; type: functional
MCF7 [21] = experiment: Modulation of DNA repair related gene expression in human MCF7 cells at 40 uM after 24 hrs by cDNA microarray analysis; type: functional, cell-based
[22] = molecular target: DNA topoisomerase 2-alpha (Homo sapiens) (UniProt P11388); experiment: Inhibition of recombinant human topoisomerase-2alpha assessed as decrease in relaxation/nicking of kinetoplast DNA using kDNA as substrate after 15 mins by ethidium bromide staining based agarose gel electrophoresis analysis; settings: dose microM 30-100, time 15.0 min

| SMILES | IC50 [1] | IC50 (A549) | IC50 (MDA-MB-231) | IC50 (MCF7 [2]) | IC50 (KB) | other results |
| --- | --- | --- | --- | --- | --- | --- |
| C=C(C)[C@@H]1CC[C@]2(C(=O)OCc3ccc(Cl)cc3)CC[C@]3(C)[C@H](CC[C@@H]4[C@@]5(C)C[C@@H](F)C(=O)C(C)(C)[C@@H]5CC[C@]43C)[C@@H]12 | > 40 µM | > 40 µM | > 40 µM | > 40 µM | > 40 µM |  |
| C=C(C)[C@@H]1CC[C@]2(C(=O)OCc3ccc(Cl)cc3)CC[C@]3(C)[C@H](CC[C@@H]4[C@@]5(C)CC[C@@](O)(C(F)(F)F)C(C)(C)[C@@H]5CC[C@]43C)[C@@H]12 | > 40 µM | > 40 µM | > 40 µM | > 40 µM | > 40 µM |  |
| C=C(C)[C@@H]1CC[C@]2(C(=O)OC)CC[C@]3(C)[C@H](CC[C@@H]4[C@@]5(C)CC(F)C(=O)C(C)(C)[C@@H]5CC[C@]43C)[C@@H]12 (some centres not stated) | > 10 µM | > 10 µM | > 10 µM | > 10 µM | > 10 µM |  |
| C=C(C)[C@@H]1CC[C@]2(C(=O)O)CC[C@]3(C)[C@H](CC[C@@H]4[C@@]5(C)CC[C@H](O)C(C)(C)[C@@H]5CC[C@]43C)[C@@H]12 [BETULINIC ACID] | 30.7 µM | 29.5 µM | > 40 µM | > 40 µM | 28.7 µM | inhibition [3]: inactive; Activity (MCF7 [4]): Active; inhibition [5]: inactive; inhibition [6]: inactive; inhibition [7]: inactive; inhibition [8]: Active; inhibition (MCF7 [9]): Active |
| C=C(C)[C@@H]1CC[C@]2(C(=O)OCc3ccc(Cl)cc3)CC[C@]3(C)[C@H](CC[C@@H]4[C@@]5(C)C[C@H](F)C(=O)C(C)(C)[C@@H]5CC[C@]43C)[C@@H]12 | > 40 µM | > 40 µM | > 40 µM | > 40 µM | > 40 µM |  |
| C=C(C)[C@@H]1CC[C@]2(C(=O)O)CC[C@]3(C)[C@H](CC[C@@H]4[C@@]5(C)C[C@H](F)[C@H](O)C(C)(C)[C@@H]5CC[C@]43C)[C@@H]12 | 6 µM | 4.5 µM | 12.4 µM | 14.4 µM | 6.1 µM |  |
| C=C(C)[C@@H]1CC[C@]2(C(=O)O)CC[C@]3(C)[C@H](CC[C@@H]4[C@@]5(C)C[C@@H](F)[C@H](O)C(C)(C)[C@@H]5CC[C@]43C)[C@@H]12 | 6.7 µM | 5.6 µM | 9 µM | 15.3 µM | 6.7 µM |  |
| C=C(C)[C@@H]1CC[C@]2(C(=O)O)CC[C@]3(C)[C@H](CC[C@@H]4[C@@]5(C)CC[C@@](O)(C(F)(F)F)C(C)(C)[C@@H]5CC[C@]43C)[C@@H]12 | 6 µM | 5.4 µM | > 10 µM | 7.8 µM | 5.9 µM |  |
| C=C(C)[C@@H]1CC[C@]2(C(=O)O)CC[C@]3(C)[C@H](CC[C@@H]4[C@@]5(C)CC(F)[C@H](O)C(C)(C)[C@@H]5CC[C@]43C)[C@@H]12 (mixture of isomers) | 7 µM | 6.1 µM | 11 µM | 9.2 µM | 6.5 µM | Activity (MCF7 [10]): Active; Activity (MCF7 [11]): Active; inhibition [3]: Active; viability at 72 h, 30 µM [12]: 80%; Activity (MCF7 [13]): Dose-dependent effect; Activity (MCF7 [14]): Tde; inhibition [15]: Active; inhibition [16]: Dose-dependent effect; inhibition [5]: Active; Activity (MCF7 [17]): Active; inhibition [6]: Active; inhibition [18]: Active; Activity (MCF7 [19]): Active; Activity (MCF-10A): Non-Toxic; Activity (MCF7 [20]): >80%; inhibition (MCF7 [9]): Active; Activity (MCF7 [21]): Active; inhibition [22]: Dose-dependent effect |
| CC(=O)O[C@H]1C(=O)[C@@]2(C)[C@H]([C@H](OC(=O)c3ccccc3)[C@]3(O)C[C@H](OC(=O)[C@H](O)[C@@H](NC(=O)c4ccccc4)c4ccccc4)C(C)=C1C3(C)C)[C@]1(OC(C)=O)CO[C@@H]1C[C@@H]2O [PACLITAXEL] | 2.9 µM |  |  |  |  |  |
| COc1cc([C@@H]2c3cc4c(cc3[C@@H](O[C@@H]3O[C@@H]5CO[C@@H](C)O[C@H]5[C@H](O)[C@H]3O)[C@H]3COC(=O)[C@H]23)OCO4)cc(OC)c1O |  |  |  |  |  | inhibition [7]: Active |
| C=C(C)[C@@H]1CC[C@]2(C(=O)OCc3ccc(Cl)cc3)CC[C@]3(C)[C@H](CC[C@@H]4[C@@]5(C)CCC(=O)C(C)(C)[C@@H]5CC[C@]43C)[C@@H]12 | > 40 µM | > 40 µM | > 40 µM | > 40 µM | > 40 µM |  |
| C=C(C)[C@@H]1CC[C@]2(C(=O)OC)CC[C@]3(C)[C@H](CC[C@@H]4[C@@]5(C)CC(F)[C@H](OC(=O)CC(C)(C)C(=O)O)C(C)(C)[C@@H]5CC[C@]43C)[C@@H]12 (some centres not stated) | > 10 µM | > 10 µM | > 10 µM | > 10 µM | > 10 µM |  |
| C=C(C)[C@@H]1CC[C@]2(C(=O)O)CC[C@]3(C)[C@H](CC[C@@H]4[C@@]5(C)CC(F)[C@H](OC(=O)CC(C)(C)C(=O)O)C(C)(C)[C@@H]5CC[C@]43C)[C@@H]12 (some centres not stated) | > 10 µM | > 10 µM | > 10 µM | > 10 µM | > 10 µM |  |
| C=C(C)[C@@H]1CC[C@]2(C(=O)OC)CC[C@]3(C)[C@H](CC[C@@H]4[C@@]5(C)CC[C@@](O)(C(F)(F)F)C(C)(C)[C@@H]5CC[C@]43C)[C@@H]12 | > 10 µM | > 10 µM | > 10 µM | > 10 µM | > 10 µM |  |
| C=C(C)[C@@H]1CC[C@]2(C(=O)OC)CC[C@]3(C)[C@H](CC[C@@H]4[C@@]5(C)CC(F)[C@H](O)C(C)(C)[C@@H]5CC[C@]43C)[C@@H]12 (mixture of isomers) | > 10 µM | > 10 µM | > 10 µM | > 10 µM | > 10 µM |  |
